The assay deals with T1, EpoR (Homo sapiens, UniProt P19235).
T1 construct: host or cells: cells included in the PathHunter eXpress EpoR-JAK2 Functional Assay Kit
T1 sequence (P19235 25-508): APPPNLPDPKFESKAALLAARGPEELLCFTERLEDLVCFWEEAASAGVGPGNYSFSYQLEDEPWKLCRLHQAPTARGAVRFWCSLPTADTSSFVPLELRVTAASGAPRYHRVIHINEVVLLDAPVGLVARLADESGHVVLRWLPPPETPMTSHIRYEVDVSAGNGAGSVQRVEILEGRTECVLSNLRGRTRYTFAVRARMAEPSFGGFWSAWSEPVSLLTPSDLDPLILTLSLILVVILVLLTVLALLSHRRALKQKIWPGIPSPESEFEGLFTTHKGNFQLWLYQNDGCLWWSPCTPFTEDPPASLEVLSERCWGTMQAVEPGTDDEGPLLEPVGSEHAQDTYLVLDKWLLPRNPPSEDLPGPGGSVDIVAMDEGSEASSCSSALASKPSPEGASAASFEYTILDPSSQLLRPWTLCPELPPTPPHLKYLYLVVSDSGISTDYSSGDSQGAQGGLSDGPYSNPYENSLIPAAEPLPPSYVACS
Kind of assay: EpoR activation ability, PathHunter eXpress EpoR-JAK2 Functional Assay Kit. It is filed as cell-based. The conditions noted are these: for maximum activation ability compared with rhEPO: Example 22, FIG. 35; for EpoR activation, concentration dependence: culture supernatant, FIGS. 35, 55 to 57, 61; for EpoR activation, relative activity among linker lengths: Example 38, cell-free translation solution, FIG. 70. The protocol: The EpoR activation ability of the EPO-PAS dimer peptide was evaluated using PathHunter (registered trademark) eXpress EpoR-JAK2 Functional Assay Kit (DiscoverX).
(§1) Cells for EPO activity evaluation included in PathHunter (registered trademark) eXpress EpoR-JAK2 Functional Assay Kit were seeded on a 96-well plate and cultured for 24 hours at 37° C. under 5% CO2. […] As a negative control, the culture supernatant (FIG. 32, lane 18) obtained by culturing as described in Example 20 except for using a vector containing no gene for expressing the EPO-PAS dimer peptide, diluted at the same ratio as the culture supernatant containing AET-EPO-PAS8 or AET-EPO-PAS22, was added. The prepared Substrate Reagent was added to the cells stimulated at room temperature for 3 hours, and the cells were incubated for 60 minutes. The chemiluminescence intensity was quantified with a Nivo plate reader (Perkin Elmer).
The EpoR activation ability of the EPO-PAS dimer peptide linker variant was evaluated using PathHunter (registered trademark) eXpress EpoR-JAK2 Functional Assay Kit (DiscoverX).
as §1, with “48,” for “32,”, “26)” for “18)”, “30” for “20”
The EpoR activation ability of the stabilized EPO-PAS dimer peptide was evaluated using PathHunter (registered trademark) eXpress EpoR-JAK2 Functional Assay Kit (DiscoverX).
Cells for EPO activity evaluation included in PathHunter (registered trademark) eXpress EpoR-JAK2 Functional Assay Kit were seeded on a 96-well plate and cultured for 24 hours at 37° C. under 5% CO2. To the cells, a culture supernatant containing 14.2 μg/L to 220 pg/L AET-EPO-PAS22, AET-EPO-PAS22-PAS200, or AET-EPO-PAS22-PAS600 (cultured as described in Example 20 or 33) was added. As a negative control, the culture supernatant (FIG. 58, lane 20) obtained by culturing as described in Example 33 except for using a vector containing no gene for expressing the EPO-PAS dimer peptide, diluted at the same ratio as the culture supernatant containing AET-EPO-PAS22, AET-EPO-PAS22-PAS200, or AET-EPO-PAS22-PAS600, was added. The prepared Substrate Reagent was added to the cells stimulated at room temperature for 3 hours, and the cells were incubated for 60 minutes. The chemiluminescence intensity was quantified with a Nivo plate reader (Perkin Elmer).
Cells for EPO activity evaluation included in PathHunter (registered trademark) eXpress EpoR-JAK2 Functional Assay Kit were seeded on a 96-well plate and cultured for 24 hours at 37° C. under 5% CO2. To the cells, a cell-free translation solution with translated AET-EPO-PAS8, AET-EPO-PAS49-b, or AET-EPO-PAS100-b diluted to a predetermined concentration was added. As a negative control, a cell-free translation solution with untranslated peptide, diluted at the same ratio as the cell-free translation solution with translated AET-EPO-PAS8, AET-EPO-PAS49, or AET-EPO-PAS100, was added. The prepared Substrate Reagent was added to the cells stimulated at room temperature for 3 hours, and the cells were incubated for 60 minutes. The chemiluminescence intensity was quantified with a Nivo plate reader (Perkin Elmer).

[1] abbreviates: Example 22, Table 4, dimers as culture supernatant, read-out: EC50 (g/L) (converted).
Where [2] appears, read: Example 35, Table 7, AET-EPO-PAS22 value is that of Example 22.

These results are taken from patent publication US20220396819A1, “METHOD FOR PRODUCING PEPTIDE HAVING PHYSIOLOGICAL ACTIVITY, AND PEPTIDE COMPRISING SHORT LINKER” (priority 2019, published 2022).

Read-outs that look alike come from different tables or passages of the source. Positions of bridges follow the written chain, without caps; N, C: chain ends. No end group written: not given here.

For the molecule “AETGGLYACHMGPMTWVCQPLRGAAPAAPAPAAPAAPAPAAPAAPGGLYACHMGPMTWVCQPLRG (disulfide 9-18, 51-60) [AET-EPO-PAS22]”, the “maximum activation ability compared with rhEPO” value is “almost the same as that of rhEPO” and the “EpoR activation, concentration dependence” value is given as “activated EpoR in a concentration-dependent manner”. Further, the EC50 under setting [1] was 0.0531 nM.
In the case of “MAETGGLYACHMGPMTWVCQPLRGAAPAAPAPGGLYACHMGPMTWVCQPLRG (disulfide 10-19, 38-47) [MAET-EPO-PAS8]”, the “EpoR activation, relative activity among linker lengths” value is on record as “higher activity than MAET-EPO-PAS100-b”.
For “AETGGLYACHMGPMTWVCQPLRGGGGGSGGGGSGGGGSGGGGSGGGGLYACHMGPMTWVCQPLRG (disulfide 9-18, 51-60) [AET-EPO-GS22]”, the EC50 was 0.216 nM.
In the case of “AETGGLYACHMGPMTWVCQPLRGAAPAAPAPGGLYACHMGPMTWVCQPLRG (disulfide 9-18, 37-46) [AET-EPO-PAS8]”, the “maximum activation ability compared with rhEPO” value is “almost the same as that of rhEPO” and the “EpoR activation, concentration dependence” value is on record as “activated EpoR in a concentration-dependent manner”. For the same molecule, the EC50 under setting [1] was 0.036 nM.
In the case of “AETGGLYACHMGPMTWVCQPLRGAAPAAPAPAAPAAPAPAAPAAPAPAAPAAPAPAAPAAPAPAAPAAPAPAGGLYACHMGPMTWVCQPLRG (disulfide 9-18, 78-87) [AET-EPO-PAS49]”, for the setting “read-out: EC50 (g/L) (converted)”, the EC50 is 0.501 nM.
In the case of “AETGGLYACHMGPMTWVCQPLRGGGGGSGGGGGLYACHMGPMTWVCQPLRG (disulfide 9-18, 37-46) [AET-EPO-GS8]”, the EC50 is 0.103 nM.

B1: AET-EPO-PAS22-PAS200: stabilized EPO-PAS dimer peptide, PAS200 bound to the C-terminus of AET-EPO-PAS22, SEQ ID NO: 144 (protein)
chain: AETGGLYACHMGPMTWVCQPLRGAAPAAPAPAAPAAPAPAAPAAPGGLYACHMGPMTWVCQPLRGAAPAAPAPAAPAAPAPAAPAAPAPAAPAAPAPAAPAAPAPAAPAAPAPAAPAAPAPAAPAAPAPAAPAAPAPAAPAAPAPAAPAAPAPAAPAAPAPAAPAAPAPAAPAAPAPAAPAAPAPAAPAAPAPAAPAAPAPAAPAAPAPAAPAAPAPAAPAAPAPAAPAAPAPAAPAAPAPAAPAAPAPAAPAAPAPAAPAAPAP
Regarding B1, under setting [2], the “EC50” value was 0.85 ng/mL.

B2: AET-EPO-PAS22-PAS600: stabilized EPO-PAS dimer peptide, PAS600 bound to the C-terminus of AET-EPO-PAS22, SEQ ID NO: 145 (protein)
chain: AETGGLYACHMGPMTWVCQPLRGAAPAAPAPAAPAAPAPAAPAAPGGLYACHMGPMTWVCQPLRGAAPAAPAPAAPAAPAPAAPAAPAPAAPAAPAPAAPAAPAPAAPAAPAPAAPAAPAPAAPAAPAPAAPAAPAPAAPAAPAPAAPAAPAPAAPAAPAPAAPAAPAPAAPAAPAPAAPAAPAPAAPAAPAPAAPAAPAPAAPAAPAPAAPAAPAPAAPAAPAPAAPAAPAPAAPAAPAPAAPAAPAPAAPAAPAPAAPAAPAPAAPAAPAPAAPAAPAPAAPAAPAPAAPAAPAPAAPAAPAPAAPAAPAPAAPAAPAPAAPAAPAPAAPAAPAPAAPAAPAPAAPAAPAPAAPAAPAPAAPAAPAPAAPAAPAPAAPAAPAPAAPAAPAPAAPAAPAPAAPAAPAPAAPAAPAPAAPAAPAPAAPAAPAPAAPAAPAPAAPAAPAPAAPAAPAPAAPAAPAPAAPAAPAPAAPAAPAPAAPAAPAPAAPAAPAPAAPAAPAPAAPAAPAPAAPAAPAPAAPAAPAPAAPAAPAPAAPAAPAPAAPAAPAPAAPAAPAPAAPAAPAPAAPAAPAPAAPAAPAPAAPAAPAPAAPAAPAPAAPAAPAPAAPAAPAPAAPAAPAPAAPAAPAPAAPAAPAPAAPAAPAPAAPAAPAPAAPAAPAP
B2: the “EC50” value under setting [2] is 0.32 ng/mL.

B3: MAETGGLYACHMGPMTWVCQPLRGSAPSPSSAPASASAPASPASASASASPASSPASASSASPAASSASPASSGGLYACHMGPMTWVCQPLRG (peptide)
chain: MAETGGLYACHMGPMTWVCQPLRGSAPSPSSAPASASAPASPASASASASPASSPASASSASPAASSASPASSGGLYACHMGPMTWVCQPLRG
modifications: MAET-EPO-PAS49-b; DISULFID (10)..(19) Disulfid bridge between Cys-10 and Cys-19; DISULFID (79)..(88) Disulfid bridge between Cys-79 and Cys-88
Consider B3, for which the “EpoR activation, relative activity among linker lengths” value is given as “higher activity than MAET-EPO-PAS100-b”.

B4: AET-EPO-PAS100: EPO-PAS dimer peptide linker variant, PAS linker of 100 amino acids, SEQ ID NO: 128 (protein)
chain: AETGGLYACHMGPMTWVCQPLRGAAPAAPAPAAPAAPAPAAPAAPAPAAPAAPAPAAPAAPAPAAPAAPAPAAPAAPAPAAPAAPAPAAPAAPAPAAPAAPAPAAPAAPAPAAPAAPAPAAPAGGLYACHMGPMTWVCQPLRG
Regarding B4, the “EC50” value (Example 32, Table 6, rhEPO, AET-EPO-PAS8, AET-EPO-PAS22 values are those in Example 22) stood at 6.6 ng/mL.
